We go through 14 compounds from US10968203B2, “Pyrimidinyl-pyridyloxy-naphthyl compounds and methods of treating IRE1-related diseases and disorders” (Genentech, Inc., priority 2017, dated 2021).

Each structure is given as a SMILES string. Where “and” joins values, the source holds several entries; their conditions need not be identical. Equal entries are not always repeated. Structures can show the parent of a compound that is named as a salt. Where two headings read alike, the source gives them in different places.

For this experiment, the system named is XBP1s-luc 293 LUC. As to the kind of experiment: cellular PD assay, XBP1s-LUC reporter (Example 903). The conditions noted are these: read-out: XBP1s-luc 293 LUC (IC50). The experiment is classed as cell-based. An outline of the steps: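 A luciferase fusion, in frame and expressed only when the XBP1 transcript is spliced, served as the readout of cellular IRE1α activity in an XBP1-Luc reporter line.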

One may read the IC50 as the midpoint of a concentration-inhibition curve. Take `CCCS(=O)(=O)Nc1cccc2c(Oc3ncccc3-c3ccnc(N[C@H]4CC[C@H](N)CC4)n3)c(C)ccc12` [Example 158, N-(5-((3-(2-(((trans)-4-Aminocyclohexyl)amino)pyrimidin-4-yl)pyridin-2-yl)oxy)-6-methylnaphthalen-1-yl)propane-1-sulfonamide]: the IC50 (Table 1) worked out at 471 nM.
The same measure, in the same setting: the value for `Cc1ccc2c(N3CC[C@H](C)C3=O)cccc2c1Oc1ncccc1-c1ccnc(N[C@H]2CCCNC2)n1` (single isomer, unassigned) [Example 257] was 264 nM; that for `Cc1ccc2c(N3CCN(C)S3(=O)=O)cccc2c1Oc1ncccc1-c1ccnc(N[C@H]2CCCNC2)n1` [Example 247, (S)-2-Methyl-5-(6-methyl-5-((3-(2-(piperidin-3-ylamino)pyrimidin-4-yl)pyridin-2-yl)oxy)naphthalen-1-yl)-1,2,5-thiadiazolidine 1,1-dioxide] was 360 nM.
Same read-out and setting: the value for `Cc1ccc2c(NS(=O)(=O)Cc3ccccc3)cccc2c1Oc1ncccc1-c1ccnc(N[C@H]2CC[C@H](N)CC2)n1` [Example 152, N-(5-((3-(2-(((trans)-4-Aminocyclohexyl)amino)pyrimidin-4-yl)pyridin-2-yl)oxy)-6-methylnaphthalen-1-yl)-1-phenylmethanesulfonamide] was 241 nM.
As for `Cc1ccc2c(NS(=O)(=O)Cc3ccccc3F)c(F)ccc2c1Oc1ncccc1-c1ccnc(N[C@H]2CCCNC2)n1` [Example 391, (S)—N-(2-Fluoro-6-methyl-5-((3-(2-(piperidin-3-ylamino)pyrimidin-4-yl)pyridin-2-yl)oxy)naphthalen-1-yl)-1-(2-fluorophenyl)methanesulfonamide], the IC50 (Table 1) worked out at 2.77 nM.
On the same count and under the same terms, the value for `CCCS(=O)(=O)Nc1c(F)ccc2c(Oc3ncccc3-c3ccnc(N[C@@H]4CNCC[C@H]4C)n3)c(C)ccc12` (single isomer, unassigned) [Example 327] was 254 nM; that for `Cc1ccc2c(NS(=O)(=O)Cc3cscn3)cccc2c1Oc1ncccc1-c1ccnc(N[C@H]2CCCNC2)n1` [Example 156, (S)—N-(6-Methyl-5-((3-(2-(piperidin-3-ylamino)pyrimidin-4-yl)pyridin-2-yl)oxy)naphthalen-1-yl)-1-(thiazol-4-yl)methanesulfonamide] was 157 nM.
The same measure, in the same setting: then `Cc1ccc2c(NC(=O)[C@@H]3C[C@@H]3C)cccc2c1Oc1ncccc1-c1ccnc(N[C@H]2CCCNC2)n1` (single isomer, unassigned) [Example 231], with 53 nM and 33.3 nM.
On the same count and under the same terms, the value for `Cc1ccc2c(NCC[C@@H](C)O)cccc2c1Oc1ncccc1-c1ccnc(N[C@H]2CCCNC2)n1` (single isomer, unassigned) [Example 201] was 133 nM.
`Cc1ccc2c(NCC[C@@H]3CC3(F)F)cccc2c1Oc1ncccc1-c1ccnc(N[C@H]2CCCNC2)n1` (single isomer, unassigned) [Example 291]: under “Table 1”, the IC50 stood at 361 nM.
On the same count and under the same terms, the value for `Cc1ccc2c(NC(=O)C(Cl)Cl)cccc2c1Oc1ncccc1-c1ccnc(N[C@H]2CCCNC2)n1` [Example 338, (S)-2,2-Dichloro-N-(6-methyl-5-(3-(2-(piperidin-3-ylamino)pyrimidin-4-yl)pyridin-2-yloxy)naphthalen-1-yl)acetamide] was 161 nM; that for `Cc1ccc2c(NC(=O)[C@H]3CC34CC4)c(F)ccc2c1Oc1ncccc1-c1ccnc(N[C@@H]2CNC[C@H](C)C2)n1` (single isomer, unassigned) [Example 388] was 136 nM.
The same measure, in the same setting: then `Cc1ccc2c(NC(=O)Cc3ccccc3F)cccc2c1Oc1ncccc1-c1ccnc(N[C@H]2CCCNC2)n1` [Example 177, (S)-2-(2-Fluorophenyl)-N-(6-methyl-5-((3-(2-(piperidin-3-ylamino)pyrimidin-4-yl)pyridin-2-yl)oxy)naphthalen-1-yl)acetamide], with 108 nM.
`Cc1ccc2c(NC[C@H](O)C(C)C)cccc2c1Oc1ncccc1-c1ccnc(N[C@H]2CCCNC2)n1` (single isomer, unassigned) [Example 461, hydrochloride]: under “Table 2”, the IC50 is 42 nM.
